Test results reported in patent publication US6660752B2, “2,6-Substituted chroman derivatives useful as beta-3 adrenoreceptor agonists” (Bayer Pharmaceuticals Corporation, priority 2001, dated 2003).

Biological target: T1, human beta-3-adrenergic receptor (Homo sapiens, UniProt P13945)
T1 construct: stably express full-length human beta-3-adrenergic receptor; expressed in transfected cells; host or cells: Chinese hamster ovary (CHO) cells
Assay: cAMP production (beta-3 agonist activity) in CHO cells stably expressing human beta-3-adrenergic receptor, cAMP SPA
Assay type: cell-based
Conditions: CHO cells expressing full-length human beta-3-adrenergic receptor, 30 min incubation, 10 μM to 3 nM, read-out: Beta-3 Agonistic Activity: Compounds with EC50 values ≦1 μM
Description: Chinese hamster ovary (CHO) cells that stably express full-length human beta-3-adrenergic receptor (Granneman et al., Mol. Pharmacol. 44:264-270, 1993) can be used in the following procedure. The cell line is grown in 90% F12 nutrient mixture (HAM), 10% fetal bovine serum, 100 units/ml penicillin G sodium, […] streptomycin sulfate, and 2 mM L-glutamine at 37° C. in 95% air and 5% CO2. The transfected cell line is maintained with G-418 (800 μg/ml).
To test the agonist activity, cells are exposed to test compound and then assayed for cAMP production. CHO cells (100 μl) are plated at 5×10^4 cells/well of a 96-well plate (Costar, Cambridge, Mass.) to achieve 70% confluency the next day. After overnight incubation at 37° C., media is removed and the cells are treated for 30 minutes at 37° C. with KRP buffer (120 mM NaCl, 5.1 mM KCl, 0.6 mM MgSO4.7H2O, 0.8 mM CaCl2.H2O, […] phosphate buffer, […] Hepes pH 7.4)+[…] IBMX ([…]), +1% DMSO, +/− test compounds ([…]). Test compounds are assayed from 10 μM to 3 nM with 3-fold serial dilutions. The control agonist, isoproterenol (10 mM stock in 1.1 mM ascorbate), is assayed by 3-fold dilution beginning at 1 μM. After a 30-minute incubation with the test compounds, the buffer/compound mixture is removed. The cells are lysed and cAMP levels are measured using the cAMP SPA screening assay system (Amersham, Arlington Heights, Ill.). The cAMP values are then plotted to determine the EC50 of each compound tested.

T1 sequence (P13945 whole entry): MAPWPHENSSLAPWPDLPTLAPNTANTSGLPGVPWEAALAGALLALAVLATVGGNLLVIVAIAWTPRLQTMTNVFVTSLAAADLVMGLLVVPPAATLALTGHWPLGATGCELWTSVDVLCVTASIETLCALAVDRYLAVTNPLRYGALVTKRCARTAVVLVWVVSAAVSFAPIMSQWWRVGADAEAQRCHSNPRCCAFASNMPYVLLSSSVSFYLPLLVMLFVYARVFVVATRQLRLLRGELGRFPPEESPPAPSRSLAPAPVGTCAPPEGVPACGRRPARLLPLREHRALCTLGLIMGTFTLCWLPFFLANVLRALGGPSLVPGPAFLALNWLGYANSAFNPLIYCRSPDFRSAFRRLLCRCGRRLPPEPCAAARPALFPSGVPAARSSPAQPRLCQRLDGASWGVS

Row | EC50 | Structure (SMILES)
1 | ≤ 1000 nM | O=C1CCc2cc(NS(=O)(=O)c3cccc(-c4ccc5c(c4)CC[C@H](CNC[C@H](O)c4cccnc4)O5)c3)ccc21 [Example 255]
2 | ≤ 1000 nM | N#Cc1ccc(NS(=O)(=O)c2ccc(-c3ccc4c(c3)CC[C@H](CNC[C@H](O)c3cccnc3)O4)cc2)cc1 [Example 256]
3 | ≤ 1000 nM | N#Cc1ccc(NS(=O)(=O)c2cccc(-c3ccc4c(c3)CC[C@H](CNC[C@H](O)c3cccnc3)O4)c2)cc1 [Example 257]
4 | ≤ 1000 nM | O=C1CCc2cc(NS(=O)(=O)c3ccc(-c4ccc5c(c4)CC[C@H](CNC[C@H](O)c4cccnc4)O5)cc3)ccc21 [Example 258]
5 | ≤ 1000 nM | N#Cc1cc([N+](=O)[O-])ccc1NS(=O)(=O)c1cccc(-c2ccc3c(c2)CC[C@H](CNC[C@H](O)c2cccnc2)O3)c1 [Example 259, N-(2-cyano-4-nitrophenyl)-3-[(2R)-2-({[(2R)-2-hydroxy-2-(3-pyridinyl)ethyl]amino}methyl)-3,4-dihydro-2H-chromen-6-yl]benzenesulfonamide]
6 | ≤ 1000 nM | O=S(=O)(Nc1cccnc1)c1cccc(-c2ccc3c(c2)CC[C@H](CNC[C@H](O)c2cccnc2)O3)c1 [Example 260]
7 | ≤ 1000 nM | O=S(=O)(Nc1ncccn1)c1cccc(-c2ccc3c(c2)CC[C@H](CNC[C@H](O)c2cccnc2)O3)c1 [Example 261, 3-[(2R)-2-({[(2R)-2-hydroxy-2-(3-pyridinyl)ethyl]amino}methyl)-3,4-dihydro-2H-chromen-6-yl]-N-(2-pyrimidinyl)benzenesulfonamide]
8 | ≤ 1000 nM | N#Cc1ccc(NS(=O)(=O)c2ccc(-c3ccc4c(c3)CC[C@H](CNC[C@H](O)c3cccnc3)O4)cc2OC(F)(F)F)cc1 [Example 262, N-(4-cyanophenyl)-4-[(2R)-2-({[(2R)-2-hydroxy-2-(3-pyridinyl)ethyl]amino}methyl)-3,4-dihydro-2H-chromen-6-yl]-2-(trifluoromethoxy)benzenesulfonamide]
9 | ≤ 1000 nM | CC(=O)c1ccc(NS(=O)(=O)c2ccc(-c3ccc4c(c3)CC[C@H](CNC[C@H](O)c3cccnc3)O4)cc2OC(F)(F)F)cc1 [Example 263]
10 | ≤ 1000 nM | CC(=O)c1ccc(NS(=O)(=O)c2ccc(-c3ccc4c(c3)CC[C@H](CNC[C@H](O)c3cccnc3)O4)cc2)cc1 [Example 264]
11 | ≤ 1000 nM | O=S(=O)(Nc1nccs1)c1ccc(-c2ccc3c(c2)CC[C@H](CNC[C@H](O)c2cccnc2)O3)cc1 [Example 265, 4-[(2R)-2-({[(2R)-2-hydroxy-2-(3-pyridinyl)ethyl]amino}methyl)-3,4-dihydro-2H-chromen-6-yl]-N-(1,3-thiazol-2-yl)benzenesulfonamide]
12 | ≤ 1000 nM | COc1ccc(-c2ccc3c(c2)CC[C@H](CNC[C@H](O)c2cccnc2)O3)cc1S(=O)(=O)Nc1nccs1 [Example 266]
13 | ≤ 1000 nM | COc1cc(OC)nc(NS(=O)(=O)c2ccc(-c3ccc4c(c3)CC[C@H](CNC[C@H](O)c3cccnc3)O4)cc2)n1 [Example 267]
14 | ≤ 1000 nM | Cc1ccnc(NS(=O)(=O)c2ccc(-c3ccc4c(c3)CC[C@H](CNC[C@H](O)c3cccnc3)O4)cc2)n1 [Example 268, 4-[(2R)-2-({[(2R)-2-hydroxy-2-(3-pyridinyl)ethyl]amino}methyl)-3,4-dihydro-2H-chromen-6-yl]-N-(4-methyl-2-pyrimidinyl)benzenesulfonamide]
15 | ≤ 1000 nM | COc1ccc(-c2ccc3c(c2)CC[C@H](CNC[C@H](O)c2cccnc2)O3)cc1S(=O)(=O)Nc1nccc(C)n1 [Example 269]
16 | ≤ 1000 nM | COc1cc(OC)nc(NS(=O)(=O)c2cc(-c3ccc4c(c3)CC[C@H](CNC[C@H](O)c3cccnc3)O4)ccc2OC)n1 [Example 270]
17 | ≤ 1000 nM | COc1cc(C)nc(NS(=O)(=O)c2cc(-c3ccc4c(c3)CC[C@H](CNC[C@H](O)c3cccnc3)O4)ccc2OC)n1 [Example 271]
18 | ≤ 1000 nM | COc1ccc(-c2ccc3c(c2)CC[C@H](CNC[C@H](O)c2cccnc2)O3)cc1S(=O)(=O)Nc1ncccn1 [Example 272]
19 | ≤ 1000 nM | COc1cc(C)nc(NS(=O)(=O)c2ccc(-c3ccc4c(c3)CC[C@H](CNC[C@H](O)c3cccnc3)O4)cc2)n1 [Example 273, 4-[(2R)-2-({[(2R)-2-hydroxy-2-(3-pyridinyl)ethyl]amino}methyl)-3,4-dihydro-2H-chromen-6-yl]-N-(4-methoxy-6-methyl-2-pyrimidinyl)benzenesulfonamide]
20 | ≤ 1000 nM | COc1cc(OC)nc(NS(=O)(=O)c2ccc(-c3ccc4c(c3)CC[C@H](CNC[C@H](O)c3cccnc3)O4)cc2OC(F)(F)F)n1 [Example 274, N-(4,6-dimethoxy-2-pyrimidinyl)-4-[(2R)-2-({[(2R)-2-hydroxy-2-(3-pyridinyl)ethyl]amino}methyl)-3,4-dihydro-2H-chromen-6-yl]-2-(trifluoromethoxy)benzenesulfonamide]
21 | ≤ 1000 nM | COc1cc(C)nc(NS(=O)(=O)c2ccc(-c3ccc4c(c3)CC[C@H](CNC[C@H](O)c3cccnc3)O4)cc2OC(F)(F)F)n1 [Example 275, 4-[(2R)-2-({[(2R)-2-hydroxy-2-(3-pyridinyl)ethyl]amino}methyl)-3,4-dihydro-2H-chromen-6-yl]-N-(4-methoxy-6-methyl-2-pyrimidinyl)-2-(trifluoromethoxy)benzenesulfonamide]
22 | ≤ 1000 nM | O=S(=O)(Nc1nc2ccccc2s1)c1ccc(-c2ccc3c(c2)CCC(CNC[C@H](O)c2cccnc2)O3)cc1 (stereo partly drawn) [Example 276]
23 | ≤ 1000 nM | COc1ccc(-c2ccc3c(c2)CCC(CNC[C@H](O)c2cccnc2)O3)cc1S(=O)(=O)Nc1ccc(C#N)cc1 (stereo partly drawn) [Example 277]
24 | ≤ 1000 nM | COc1ccc(-c2ccc3c(c2)CC[C@H](CNC[C@H](O)c2cccnc2)O3)cc1S(=O)(=O)Nc1ccc(C(C)=O)cc1 [Example 280]
25 | ≤ 1000 nM | O=C(CC(F)(F)F)NS(=O)(=O)c1ccc(-c2ccc3c(c2)CC[C@H](CNC[C@H](O)c2cccnc2)O3)cc1 [Example 284, 4-[(2R)-2-({[(2R)-2-hydroxy-2-(3-pyridinyl)ethyl]amino}methyl)-3,4-dihydro-2H-chromen-6-yl]-N-(3,3,3-trifluoropropanoyl)benzenesulfonamide]
26 | ≤ 1000 nM | O=C(NS(=O)(=O)c1ccc(-c2ccc3c(c2)CC[C@H](CNC[C@H](O)c2cccnc2)O3)cc1)C1CC1 [Example 285, N-(cyclopropylcarbonyl)-4-[(2R)-2-({[(2R)-2-hydroxy-2-(3-pyridinyl)ethyl]amino}methyl)-3,4-dihydro-2H-chromen-6-yl]benzenesulfonamide]
27 | ≤ 1000 nM | CCOCC(=O)NS(=O)(=O)c1ccc(-c2ccc3c(c2)CC[C@H](CNC[C@H](O)c2cccnc2)O3)cc1 [Example 286, N-(ethoxyacetyl)-4-[(2R)-2-({[(2R)-2-hydroxy-2-(3-pyridinyl)ethyl]amino}methyl)-3,4-dihydro-2H-chromen-6-yl]benzenesulfonamide]
28 | ≤ 1000 nM | CC(C)(C)CC(=O)NS(=O)(=O)c1ccc(-c2ccc3c(c2)CC[C@H](CNC[C@H](O)c2cccnc2)O3)cc1 [Example 287, N-(3,3-dimethylbutanoyl)-4-[(2R)-2-({[(2R)-2-hydroxy-2-(3-pyridinyl)ethyl]amino}methyl)-3,4-dihydro-2H-chromen-6-yl]benzenesulfonamide]
29 | ≤ 1000 nM | O=C(NS(=O)(=O)c1ccc(-c2ccc3c(c2)CC[C@H](CNC[C@H](O)c2cccnc2)O3)cc1)C(C(F)(F)F)C(F)(F)F [Example 288]
30 | ≤ 1000 nM | CCC(CC)C(=O)NS(=O)(=O)c1ccc(-c2ccc3c(c2)CC[C@H](CNC[C@H](O)c2cccnc2)O3)cc1 [Example 289]
